Source: patent US20240368710A1, “STREAMLINED PLATFORM FOR BACTERIAL IDENTIFICATION AND ANTIBIOTIC SUSCEPTIBILITY TEST” (THE JOHNS HOPKINS UNIVERSITY, priority 2017, published 2024)

Assays:
[1] = test system: E. coli; assay: bulk qPCR/HRMA antibiotic susceptibility test (growth by 16S rDNA Cq); assay type: cell-based, Escherichia coli; settings: for Cq value compared to the no-drug (growth) controls: 2 hours of incubation with gentamicin (1 μg/mL, FIG. 6A)
Method: (§1) FIG. 1 illustrates a protocol for combined ID (Identification of pathogen species) and AST (antibiotic susceptibility test) in bulk format. The protocol begins by dividing the sample into 2 portions; with and without antibiotic followed by brief incubation. Then, the cultured samples are added into PCR mixture to perform qPCR & HRMA. An additional step of DNA isolation may be performed prior to PCR. AST is determined based on Cq differences (ΔCq) and ID is obtained from HRMA based classification.
FIG. 5A-5B illustrates the comparison between the proposed AST approaches to conventional broth microdilutional method. […] (b) Conventional broth microdilutional method of the same drug concentration with overnight incubation.
(§2) FIG. 6A-6C illustrates an integrated broad-scale pathogen identification and growth detection via qPCR and HRMA. (a) Measurement of bacterial growth of E. coli and S. aureus under treatment of gentamicin (1 μg/mL) via qPCR detection of 16S rDNA. The growth status and antibiotic susceptibility of bacteria were determined by comparing the Cq value to the no-drug control. (b) Measured melt curves from amplicons of E. coli and S. aureus for both sensitive and resistant strands. […]
(§3) The inventors have designed an assay protocol to enable combined ID and AST into a single step process (FIG. 1) and using the whole blood sample as an example (FIG. 4). […] The subsequent translation to the microfluidic single-cell assay in described below can facilitate digital diagnostics with enhanced sensitivity, specificity and quantification capability.
The present invention measures bacterial growth by quantifying the bacterial DNA content using qPCR. […] When performing AST, the sample from culture tubes are added to PCR mixes immediately after brief bacterial culture for subsequent detection and quantification of bacterial DNA via qPCR. The quantification cycle (Cq) value indicates the difference in growth rate of different strains under the drug treatment; thereby the antibiotic susceptibility can be determined. […]

[2] = test system: S. aureus; assay: as above; assay type: cell-based, Staphylococcus aureus; settings: 2 hours of incubation with gentamicin (1 μg/mL, FIG. 6A)
Method: as §1
as §2, with “(a) Measurement of bacterial growth of E. coli and S. aureus under treatment of gentamicin (1 μg/mL) via qPCR detection of 16S rDNA.” left out
as §3
The present invention measures bacterial growth by quantifying the bacterial DNA content using qPCR. […]

[3] = test system: S. aureus; assay: digital PCR/HRMA AST of mixed sample in 96-well plate; assay type: cell-based, Staphylococcus aureus; settings: sensitive strain in mix with E. faecalis; 2 hours with and without 8 μg/mL of gentamicin; DNA diluted 60000-fold
Method: (§4) FIG. 2 illustrates a protocol for combined ID and AST using digital detection. The protocol begins by dividing the sample into 2 portions; with and without antibiotic followed by brief incubation. DNA isolation can be performed to extract bacterial DNA from the samples. Then, the samples are mixed with PCR mixture and diluted across very large number of isolated small volume reactions so that there is either zero or one bacterial DNA present in any individual reaction to perform digital PCR & digital HRMA. ID is obtained from HRMA based classification on each positive reactions. AST of each target bacterial species is determined by comparing the quantity of the DNA of the target bacteria from the 2 portions which indicates by the total number of positive identification associated to the identified target bacteria species.
(§5) FIG. […] Orange lines represent S. aureus and blue lines represent E. faecalis. (a) Melt curves from the sample incubated without gentamicin (b) Melt curves from the sample incubated with gentamicin (c) AST can be determined using absolute count of each species which bases on the total number of positive reactions of each specific melt curve from HRMA.
(§6) This method (FIG. 2) begins by splitting the sample to incubate with and without antibiotic. […] The species of unidentified bacteria in each positive reactions is then determined preferably using HRMA. […]

[4] = test system: E. faecalis; assay: as above; assay type: cell-based, Enterococcus faecalis; settings: sensitive strain in mix with S. aureus; 2 hours with and without 8 μg/mL of gentamicin; DNA diluted 60000-fold
Method: as §4, §5, §6

gentamicin
MIC range by ΔCq approach ([1]; E. coli sensitive strain, gentamicin 0.125-8 μg/mL, FIG. 5): corresponds to standard CLSI MIC value and the conventional method
Cq value compared to the no-drug (growth) controls ([1]; resistant strand of E. coli): close to the no-drug controls
Cq value compared to the no-drug (growth) controls ([1]; sensitive strand of E. coli): increased Cq value
Cq value compared to the no-drug (growth) controls ([2]; resistant strand of S. aureus): close to the no-drug controls
Cq value compared to the no-drug (growth) controls ([2]; sensitive strand of S. aureus): increased Cq value
count of no-gentamicin controls greater than gentamicin-treated samples [3]: 3-5 folds
count of no-gentamicin controls greater than gentamicin-treated samples [4]: 3-5 folds
